Data as given in ChEMBL document CHEMBL1201862, “PubChem BioAssay data set” (2004).
Values belong to the molecule of their own block, whether it stands above or below them. Activity calls are given as the source filed them.

Key:
[1] = biological target: Cystic fibrosis transmembrane conductance regulator/Golgi-associated PDZ and coiled-coil motif-containing protein (Homo sapiens, UniProt P13569+Q9HD26); assay: CAL PDZ peptide-binding inhibitors, dose response, biochemical, fluorescence polarization, Cerulean-tagged CAL PDZ, cherry-picks (AID 504773)
[2] = biological target: Luciferin 4-monooxygenase (Photinus pyralis, UniProt P08659); assay: Counter Screen for Luciferase-based Assay Positives. [Related pubchem assays: 620, 618, 411 ]
HT-1080 = assay: cytotoxicity in HT1080 fibrosarcoma cells, cell-based, fluorescence readout (AID 620); type: functional; conditions: Homo sapiens
[3] = biological target: Neurotensin receptor type 1 (Homo sapiens, UniProt P30989); type: functional;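 further: Image-based confirmatory dose-response assay measuring agonist activity at NTR1; NTR1-expressing U2OS osteosarcoma cells imaged for beta-arrestin GFP spot formation; agonist potency where compounds increase beta-arrestin recruitment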
Paired box protein Pax-8 = Paired box protein Pax-8 (Homo sapiens, UniProt Q06710); assay: inhibitors of PAX8-driven TPO luciferase reporter, dose response, RMG-I cells, cherry-pick (AID 687027); type: functional, cell-based;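 further: luciferase reporter driven by Pax8 target thyroperoxidase promoter measured by SteadyGlo luminescence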
[4] = cytotoxicity in KRAS-transformed pancreatic duct cells, primary screen, cell-based, fluorescence, HTS (AID 431); type: functional; conditions: Homo sapiens;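 further: cell line used: HPDE-C7K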
[5] = cytotoxicity in HPDE-C7 cells, cell-based, fluorescence, HTS (AID 430); type: functional; conditions: Homo sapiens
[6] = biological target: Glucose-6-phosphate 1-dehydrogenase (Homo sapiens, UniProt P11413); assay: human G6PD enzyme inhibitors, dose response, selectivity assay for P. falciparum G6PD inhibitor project, biochemical, fluorescence (AID 504792); type: functional
[7] = biological target: T1, Polyadenylate-binding protein 1 (Homo sapiens, UniProt P11940); assay: PABP1 MLLE–PAM2 interaction inhibitors, dose response, miRNA deadenylation inhibitor project, biochemical, fluorescence polarization, Cy5-PAM2 peptide, secondary (AID 602260); type: functional; conditions: read-out: IC50_Mean
Hexokinase HKDC1 = biological target: T2, Hexokinase HKDC1 (Homo sapiens, UniProt Q2TB90); assay: HKDC1 hexokinase inhibitors, dose response, biochemical, W721R variant (AID 504729); type: functional
T2 sequence (Q2TB90 whole entry): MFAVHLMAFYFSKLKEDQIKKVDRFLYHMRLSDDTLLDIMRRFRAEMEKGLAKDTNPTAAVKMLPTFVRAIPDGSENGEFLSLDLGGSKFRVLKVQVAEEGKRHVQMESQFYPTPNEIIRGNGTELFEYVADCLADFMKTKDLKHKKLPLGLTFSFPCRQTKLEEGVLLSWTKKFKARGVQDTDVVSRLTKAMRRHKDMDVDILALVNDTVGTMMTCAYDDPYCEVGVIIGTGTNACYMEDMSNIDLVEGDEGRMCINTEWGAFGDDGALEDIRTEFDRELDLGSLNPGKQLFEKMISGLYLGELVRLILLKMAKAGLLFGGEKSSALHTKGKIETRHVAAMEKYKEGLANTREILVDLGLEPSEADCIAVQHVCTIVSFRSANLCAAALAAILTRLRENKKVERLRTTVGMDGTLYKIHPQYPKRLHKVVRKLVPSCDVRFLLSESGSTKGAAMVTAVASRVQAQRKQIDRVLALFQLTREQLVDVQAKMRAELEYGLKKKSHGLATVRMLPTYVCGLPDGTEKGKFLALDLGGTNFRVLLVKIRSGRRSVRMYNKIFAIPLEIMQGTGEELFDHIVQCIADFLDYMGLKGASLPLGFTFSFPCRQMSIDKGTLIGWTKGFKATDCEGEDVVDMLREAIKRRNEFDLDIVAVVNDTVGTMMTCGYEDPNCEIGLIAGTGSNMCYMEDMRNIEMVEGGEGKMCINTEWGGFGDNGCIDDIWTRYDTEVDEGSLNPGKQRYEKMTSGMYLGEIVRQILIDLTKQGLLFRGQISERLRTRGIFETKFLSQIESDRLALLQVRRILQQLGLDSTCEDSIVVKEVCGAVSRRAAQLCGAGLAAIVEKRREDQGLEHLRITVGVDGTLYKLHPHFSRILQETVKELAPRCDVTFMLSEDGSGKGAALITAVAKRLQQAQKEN

[8] = biological target: T1, Polyadenylate-binding protein 1; assay: PABP1 MLLE–PAM2 binding inhibitor potency, dose response, biochemical, fluorescence polarization, FITC-PAM2 peptide (AID 602259); type: functional; conditions: read-out: IC50_Mean
[9] = biological target: T3, Zinc finger protein mex-5 (Caenorhabditis elegans, UniProt Q9XUB2); assay: MEX-5/TCR-2 RNA interaction inhibitors, dose response, biochemical, C. elegans, fluorescence polarization (AID 1960)
T3 sequence (Q9XUB2 whole entry): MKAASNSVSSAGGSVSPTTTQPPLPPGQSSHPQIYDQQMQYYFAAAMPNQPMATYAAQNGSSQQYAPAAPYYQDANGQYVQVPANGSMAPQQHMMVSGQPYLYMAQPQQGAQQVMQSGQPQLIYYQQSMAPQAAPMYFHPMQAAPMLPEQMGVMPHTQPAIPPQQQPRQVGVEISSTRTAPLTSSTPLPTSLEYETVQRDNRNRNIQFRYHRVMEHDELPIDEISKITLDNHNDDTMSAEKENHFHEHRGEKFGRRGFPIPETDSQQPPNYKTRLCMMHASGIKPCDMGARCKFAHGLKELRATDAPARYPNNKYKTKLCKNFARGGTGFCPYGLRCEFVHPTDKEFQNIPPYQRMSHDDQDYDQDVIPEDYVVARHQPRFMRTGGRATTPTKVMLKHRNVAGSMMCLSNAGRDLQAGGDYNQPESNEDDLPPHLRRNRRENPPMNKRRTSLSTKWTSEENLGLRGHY

[10] = biological target: T4, RNA-binding protein pos-1 (Caenorhabditis elegans, UniProt G5EF15); assay: inhibitors of POS-1/mex-3 RNA binding, dose response, biochemical, fluorescence polarization (AID 1964);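 further: purified POS-1 fused to maltose binding protein made in E. coli; potency of compounds blocking POS-1 binding to fluorescent RNA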
T4 sequence (G5EF15 whole entry): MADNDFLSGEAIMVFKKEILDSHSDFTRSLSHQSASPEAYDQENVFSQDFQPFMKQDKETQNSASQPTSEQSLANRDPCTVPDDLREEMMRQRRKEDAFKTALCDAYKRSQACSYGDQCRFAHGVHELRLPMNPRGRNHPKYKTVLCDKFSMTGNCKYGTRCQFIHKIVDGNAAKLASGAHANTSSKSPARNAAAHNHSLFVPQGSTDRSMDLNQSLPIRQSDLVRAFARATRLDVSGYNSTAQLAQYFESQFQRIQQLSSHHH

[11] = biological target: T5, Scavenger receptor class B member 1 (Mus musculus, UniProt Q61009); assay: inhibitors of SR-BI mediated HDL lipid uptake, dose response, ldlA[mSR-BI] cells, fluorescence, cherry pick (AID 493194); type: functional, cell-based;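 further: cellular uptake of fluorescent DiI-labeled HDL measured as cell fluorescence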
T5 sequence (Q61009 whole entry): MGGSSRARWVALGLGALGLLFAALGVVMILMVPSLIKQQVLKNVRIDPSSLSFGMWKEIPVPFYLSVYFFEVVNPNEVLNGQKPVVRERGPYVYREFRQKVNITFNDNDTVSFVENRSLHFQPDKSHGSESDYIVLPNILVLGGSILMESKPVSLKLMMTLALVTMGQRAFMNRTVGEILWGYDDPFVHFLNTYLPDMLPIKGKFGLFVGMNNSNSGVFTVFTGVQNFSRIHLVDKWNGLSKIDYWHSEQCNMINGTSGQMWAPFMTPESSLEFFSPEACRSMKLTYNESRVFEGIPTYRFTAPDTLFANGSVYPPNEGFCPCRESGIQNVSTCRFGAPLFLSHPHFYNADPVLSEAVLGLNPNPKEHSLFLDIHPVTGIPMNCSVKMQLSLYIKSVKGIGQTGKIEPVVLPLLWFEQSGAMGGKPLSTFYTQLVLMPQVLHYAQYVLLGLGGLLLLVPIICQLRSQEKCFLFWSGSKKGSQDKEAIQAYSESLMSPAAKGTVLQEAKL

[12] = biological target: Voltage-gated N-type calcium channel alpha-1B subunit/Amyloid beta A4 precursor protein-binding family A member 1 (Homo sapiens, UniProt Q00975+Q02410); assay: disruptors of Mint-PDZ/N-type channel peptide interaction – biochemical, HTRF, set 2, SAR follow-up (AID 434980); type: functional

T1 sequence (P11940 whole entry): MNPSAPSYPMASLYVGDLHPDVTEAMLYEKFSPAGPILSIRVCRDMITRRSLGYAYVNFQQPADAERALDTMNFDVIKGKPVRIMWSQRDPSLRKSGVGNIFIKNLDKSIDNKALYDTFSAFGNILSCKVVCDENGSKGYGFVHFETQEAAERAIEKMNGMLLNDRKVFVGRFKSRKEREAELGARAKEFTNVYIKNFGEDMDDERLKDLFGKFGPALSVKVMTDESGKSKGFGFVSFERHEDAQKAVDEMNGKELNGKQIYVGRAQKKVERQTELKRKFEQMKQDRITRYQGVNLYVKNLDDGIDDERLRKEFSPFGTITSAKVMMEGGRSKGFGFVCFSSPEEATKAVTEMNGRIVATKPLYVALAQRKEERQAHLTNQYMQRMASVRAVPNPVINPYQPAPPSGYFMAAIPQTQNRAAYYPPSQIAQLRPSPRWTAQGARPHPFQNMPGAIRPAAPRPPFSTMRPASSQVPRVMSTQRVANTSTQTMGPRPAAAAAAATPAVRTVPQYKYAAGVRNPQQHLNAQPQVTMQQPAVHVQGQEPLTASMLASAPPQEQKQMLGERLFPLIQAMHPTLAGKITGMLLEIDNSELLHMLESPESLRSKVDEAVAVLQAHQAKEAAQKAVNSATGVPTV
Sequence of Neurotensin receptor type 1 (P30989 whole entry): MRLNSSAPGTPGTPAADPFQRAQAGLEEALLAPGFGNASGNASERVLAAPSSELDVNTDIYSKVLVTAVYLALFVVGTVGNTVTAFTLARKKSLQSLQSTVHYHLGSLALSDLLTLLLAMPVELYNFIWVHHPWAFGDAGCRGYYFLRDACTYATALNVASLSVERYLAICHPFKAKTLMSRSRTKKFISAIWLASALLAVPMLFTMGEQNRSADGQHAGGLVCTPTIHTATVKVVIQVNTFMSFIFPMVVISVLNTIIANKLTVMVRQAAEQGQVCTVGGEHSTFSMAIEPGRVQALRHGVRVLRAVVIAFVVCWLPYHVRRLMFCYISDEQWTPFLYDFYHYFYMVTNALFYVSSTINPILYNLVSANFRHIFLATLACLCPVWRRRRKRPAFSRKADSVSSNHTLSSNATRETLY
Sequence of Paired box protein Pax-8 (Q06710 whole entry): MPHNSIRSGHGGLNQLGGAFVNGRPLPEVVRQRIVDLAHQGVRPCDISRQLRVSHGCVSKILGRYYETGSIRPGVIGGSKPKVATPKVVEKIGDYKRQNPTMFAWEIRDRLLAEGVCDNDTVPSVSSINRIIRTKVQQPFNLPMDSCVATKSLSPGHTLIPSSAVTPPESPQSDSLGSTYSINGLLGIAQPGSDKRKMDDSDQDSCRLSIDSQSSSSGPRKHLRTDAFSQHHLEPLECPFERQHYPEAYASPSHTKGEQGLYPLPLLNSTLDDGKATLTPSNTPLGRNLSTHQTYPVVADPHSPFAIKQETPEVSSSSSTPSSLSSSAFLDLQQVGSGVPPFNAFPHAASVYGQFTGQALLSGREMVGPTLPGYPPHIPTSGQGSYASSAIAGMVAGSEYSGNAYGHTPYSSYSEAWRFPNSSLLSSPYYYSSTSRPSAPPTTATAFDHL
Sequence of Luciferin 4-monooxygenase (P08659 whole entry): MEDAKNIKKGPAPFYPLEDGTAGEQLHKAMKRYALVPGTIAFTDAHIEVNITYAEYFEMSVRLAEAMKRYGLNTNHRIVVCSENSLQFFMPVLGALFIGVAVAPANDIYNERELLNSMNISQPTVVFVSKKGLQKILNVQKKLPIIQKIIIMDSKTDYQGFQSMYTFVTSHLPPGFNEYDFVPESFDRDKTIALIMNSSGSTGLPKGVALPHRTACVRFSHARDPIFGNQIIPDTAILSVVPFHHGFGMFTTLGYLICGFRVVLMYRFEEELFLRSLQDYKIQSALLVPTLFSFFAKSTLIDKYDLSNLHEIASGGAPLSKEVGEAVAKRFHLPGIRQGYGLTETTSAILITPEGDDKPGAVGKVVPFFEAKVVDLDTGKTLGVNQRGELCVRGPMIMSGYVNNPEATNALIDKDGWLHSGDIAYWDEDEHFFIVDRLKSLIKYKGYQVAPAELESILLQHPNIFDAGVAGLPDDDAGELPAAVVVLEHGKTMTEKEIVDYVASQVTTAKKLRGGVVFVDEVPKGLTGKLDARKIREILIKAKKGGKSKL
Sequence of Cystic fibrosis transmembrane conductance regulator/Golgi-associated PDZ and coiled-coil motif-containing protein (P13569 whole entry, other chains not shown): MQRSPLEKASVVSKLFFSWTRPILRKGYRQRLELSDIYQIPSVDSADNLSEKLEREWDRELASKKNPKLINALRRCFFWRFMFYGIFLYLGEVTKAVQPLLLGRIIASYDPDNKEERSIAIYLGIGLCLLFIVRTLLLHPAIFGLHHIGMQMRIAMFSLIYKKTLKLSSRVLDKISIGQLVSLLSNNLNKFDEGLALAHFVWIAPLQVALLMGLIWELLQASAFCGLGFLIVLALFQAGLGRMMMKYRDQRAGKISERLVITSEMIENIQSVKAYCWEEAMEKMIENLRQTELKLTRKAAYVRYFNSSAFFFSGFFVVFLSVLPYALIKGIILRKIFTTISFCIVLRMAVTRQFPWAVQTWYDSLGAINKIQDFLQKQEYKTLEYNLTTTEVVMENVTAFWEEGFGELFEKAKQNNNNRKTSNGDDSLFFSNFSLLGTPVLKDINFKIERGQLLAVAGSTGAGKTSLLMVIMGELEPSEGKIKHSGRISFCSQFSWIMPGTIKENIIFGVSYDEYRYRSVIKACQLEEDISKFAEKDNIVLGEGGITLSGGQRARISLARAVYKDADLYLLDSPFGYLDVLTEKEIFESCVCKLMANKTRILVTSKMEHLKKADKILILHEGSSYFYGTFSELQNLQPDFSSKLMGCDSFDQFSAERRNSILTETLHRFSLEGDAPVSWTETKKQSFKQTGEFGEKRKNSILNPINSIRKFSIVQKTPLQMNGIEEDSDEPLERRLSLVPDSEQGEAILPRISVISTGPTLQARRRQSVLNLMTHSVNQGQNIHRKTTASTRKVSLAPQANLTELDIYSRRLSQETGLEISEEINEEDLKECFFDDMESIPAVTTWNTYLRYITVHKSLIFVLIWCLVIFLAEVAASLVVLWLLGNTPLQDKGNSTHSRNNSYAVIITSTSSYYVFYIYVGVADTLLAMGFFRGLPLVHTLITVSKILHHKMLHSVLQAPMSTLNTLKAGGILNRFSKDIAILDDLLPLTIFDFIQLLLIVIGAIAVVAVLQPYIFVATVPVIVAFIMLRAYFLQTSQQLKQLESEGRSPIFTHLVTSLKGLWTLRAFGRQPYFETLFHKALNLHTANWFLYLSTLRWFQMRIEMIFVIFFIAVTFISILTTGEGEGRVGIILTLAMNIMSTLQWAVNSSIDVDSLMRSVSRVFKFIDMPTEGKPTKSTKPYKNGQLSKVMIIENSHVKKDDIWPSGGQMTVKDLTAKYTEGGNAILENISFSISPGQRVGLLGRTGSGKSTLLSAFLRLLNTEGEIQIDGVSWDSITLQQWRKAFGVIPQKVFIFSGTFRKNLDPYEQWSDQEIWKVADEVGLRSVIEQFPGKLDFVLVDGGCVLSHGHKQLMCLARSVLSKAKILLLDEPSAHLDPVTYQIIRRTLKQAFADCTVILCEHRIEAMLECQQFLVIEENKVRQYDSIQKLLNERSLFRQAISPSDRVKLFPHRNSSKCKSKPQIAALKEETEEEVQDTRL
Sequence of Glucose-6-phosphate 1-dehydrogenase (P11413 whole entry): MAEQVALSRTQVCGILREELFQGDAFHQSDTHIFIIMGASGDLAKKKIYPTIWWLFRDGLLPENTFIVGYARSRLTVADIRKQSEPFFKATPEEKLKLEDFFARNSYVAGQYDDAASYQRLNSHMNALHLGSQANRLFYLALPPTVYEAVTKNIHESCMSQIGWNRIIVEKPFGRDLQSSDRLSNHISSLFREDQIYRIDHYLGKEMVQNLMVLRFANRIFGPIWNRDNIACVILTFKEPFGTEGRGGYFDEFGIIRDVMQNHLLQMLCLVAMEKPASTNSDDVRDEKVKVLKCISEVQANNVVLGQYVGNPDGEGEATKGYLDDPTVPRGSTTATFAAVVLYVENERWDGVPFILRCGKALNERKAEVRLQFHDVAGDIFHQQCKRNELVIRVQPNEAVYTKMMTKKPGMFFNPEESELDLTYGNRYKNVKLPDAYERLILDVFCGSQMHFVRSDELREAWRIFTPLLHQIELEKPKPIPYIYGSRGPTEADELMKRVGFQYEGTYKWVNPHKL

Structure (SMILES): c1ccc(C(c2ccccc2)c2cccnc2)cc1
AC50 [1]: 45.6 µM (active)

Structure (SMILES): Cc1ccc(-c2csc3ncnc(Sc4nnc(CN5CCCCCC5=O)o4)c23)cc1
EC50 [2]: 74 µM (active)
EC50 (HT-1080): 20.1 µM (active)
EC50 [3]: 8.73 µM (active)
AC50 (Paired box protein Pax-8): 5 µM (active)
EC50 [4]: 2.1 µM (active)
EC50 [5]: 1.78 µM (active)

IC50 [6]: 34.7 µM (inactive)
IC50 [7]: > 66 µM (inactive)
IC50 (Hexokinase HKDC1): 49.6 µM (inactive)
IC50 [8]: 50.7 µM (inactive)
EC50 [9]: 5.82 µM (active)
EC50 [10]: 22.3 µM (inconclusive)
Structure (SMILES): CN(C)Cc1cc(O)c(CN(C)C)cc1O

AC50 [11]: 0.092 µM (active)
Structure (SMILES): Cc1ccccc1CN1CCN(C(=O)c2ccc(S(=O)(=O)NCc3ccco3)cc2)CC1

IC50 [12]: > 56.8 µM (inactive)
Structure (SMILES): O=C(c1cc(-c2ccco2)nc2ccccc12)N1CCC(N2CCOCC2)CC1
